Test results as given in PubChem BioAssay (NCI).
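Following 48 hours of exposure in 96-well plates, responses at five concentrations were used to interpolate endpoints linearly. Definition used: TGI = concentration required for complete inhibition of growth.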

Experiments:
Test in all cases: inhibition of tumour cell growth, NCI panel, 48 h
[1] = test system: SN12C renal
[2] = test system: OVCAR-8 ovarian
[3] = test system: OVCAR-5 ovarian
[4] = test system: SF-295 CNS
[5] = test system: OVCAR-4 ovarian
[6] = test system: SR leukemia
[7] = test system: MDA-MB-435
[8] = test system: HT29 colon
[9] = test system: CAKI-1 renal
[10] = test system: HCC-2998 colon
[11] = test system: MDA-N
[12] = test system: HCT-15 colon
[13] = test system: A549 NSCLC
[14] = test system: HS 578T breast
[15] = test system: UO-31 renal

Measured: TGI

Cc1cc(C)n(C2OC(CO)C(O)C(O)C2O)c(=S)c1C#N (stereo not given)
> 100 µM: all assays above

COC(=O)C(COC(C)=O)NC(=O)/C=C/c1ccc(O)c(OC(C)=O)c1 (stereo not given)
> 100 µM: all assays above
